Structures can show the parent of a compound that is named as a salt. Where two headings read alike, the source gives them in different places.
Experiments:
PknB = target: T1, PknB (Mycobacterium tuberculosis, UniProt P9WI81); assay: biochemical; design: species or system M. tuberculosis; details: for Ki: read-out: Ki Values
T1 construct: made in house

[1] = system: Mycobacterium tuberculosis H37Ra; assay: Mycobacterium tuberculosis growth inhibition assay (microtiter dilution, resazurin reduction); type: cell-based; details: 7H9 broth, 9 days + 24 h resazurin, lowest concentration inhibiting resazurin reduction by >70%, several symbols in a cell = repeat determinations
Experimental: Compounds were screened for their ability to inhibit the growth of Mycobacterium tuberculosis H37Ra using a standard microtiter dilution method with reduction of the dye resazurin as an indicator of growth. The growth assay was carried out in standard Mycobacterium liquid growth medium, 7H9Broth (BD Biosciences, Franklin Lakes, N.J.) supplemented with 10% ADC enrichment (BD Biosciences, Franklin Lakes, N.J.). The medium was inoculate with ˜1×10^6 cells/milliliter of Mycobacterium tuberculosis H37Ra grown on a the surface of a growth medium solid medium (7H11 agar [BD Biosciences, Franklin Lakes, N.J.] supplemented with 10% OADC enrichment [BD Biosciences, Franklin Lakes, N.J.]).
Two-fold serial dilutions (either 7 or 11-step series) of test compounds in DMSO were dispensed into 96-well assay plates (sterile, black sided, clear bottom wells) in a volume of 1 microliter. One microliter of DMSO was dispensed into a control well at the end of each series. One-hundred microliters of the bacterial cell suspension in growth medium was dispensed into each test well containing a DSMO solution of compound. The assay plates were covered with a fitted lid and incubated at 37° C. in a humidified chamber for 9 days. On the ninth day 30 microliters of a 0.01% solution of resazurin (Sigma Chemical Co., St. Louis, Mo.) in distilled water was added to each well and the baseline fluorescence of resazurin was determined by measuring well fluorescence at an excitation wavelength of 492 nm and an emission wavelength of 595 nm on a Spectrafluor Plus (Tecan, Durham, N.C.) instrument. The assay plates were returned to the incubation chamber for 24 hours. After 24 hours, the fluorescence of the wells (resulting from the reduction of resazurin dye) was measured at an excitation wavelength of 492 nm and an emission wavelength of 595 nm on the Spectrafluor Plus instrument. The minimum inhibitory concentration (MIC) was called as the lowest concentration of compound that inhibited the reduction of resazurin by >70%, as compared to the DMSO (untreated) control wells. MIC values are represented as the following values: • A* <1.6 μM • A 1.6 μM<12.5 μM • B** 12.5 μM-25.0 μM • B* 25.0 μM-50.0 μM • B 50.0 μM-100.0 μM • C >100.0 μM

[2] = 3 nM PknB, 6 uM GarA, 3 μM ATP, 30 min, competitive tight-binding fit, several symbols in a cell = repeat determinations

T1 sequence (P9WI81 whole entry): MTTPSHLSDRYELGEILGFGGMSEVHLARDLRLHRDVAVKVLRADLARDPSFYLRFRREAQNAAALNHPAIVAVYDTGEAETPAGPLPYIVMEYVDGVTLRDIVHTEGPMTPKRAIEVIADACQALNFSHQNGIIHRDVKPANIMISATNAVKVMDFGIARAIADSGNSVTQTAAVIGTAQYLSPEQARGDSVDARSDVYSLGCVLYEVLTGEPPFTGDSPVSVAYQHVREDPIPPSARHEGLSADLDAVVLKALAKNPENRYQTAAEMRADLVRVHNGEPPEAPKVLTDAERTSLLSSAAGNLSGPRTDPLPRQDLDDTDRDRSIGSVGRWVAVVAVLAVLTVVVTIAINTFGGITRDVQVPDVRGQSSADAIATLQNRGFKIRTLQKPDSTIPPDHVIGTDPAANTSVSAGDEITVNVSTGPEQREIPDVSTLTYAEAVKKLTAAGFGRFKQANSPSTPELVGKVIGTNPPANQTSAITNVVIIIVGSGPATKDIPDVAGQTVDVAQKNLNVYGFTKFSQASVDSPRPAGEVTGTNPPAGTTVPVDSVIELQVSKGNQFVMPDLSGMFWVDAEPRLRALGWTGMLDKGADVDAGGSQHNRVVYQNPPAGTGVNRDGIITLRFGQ

SMILES | Ki (PknB; [2]) [nM] | MIC values [1] | Ki Values (PknB) | Ki Values (PknB; [2])
O=S(=O)(c1ccc(-c2ncc(Cl)c(Nc3cc(C4CC4)[nH]n3)n2)s1)n1cccc1 [Compound 307, 5-chloro-N-(5-cyclopropyl-1H-pyrazol-3-yl)-2-(5-pyrrol-1-ylsulfonyl-2-thienyl)-pyrimidin-4-amine] | 10 to 50 | B+ | – | –
C#Cc1cnc(-c2ccc(S(=O)(=O)NC)s2)nc1Nc1cc(C2CC2)n[nH]1 [Compound 113, 5-(4-(3-cyclopropyl-1H-pyrazol-5-ylamino)-5-ethynylpyrimidin-2-yl)-N-methylthiophene-2-sulfonamide] | 1 to 10 | B+ | – | –
CC(C)(C)OC(=O)/N=C(\N)c1ccc(-c2ncc(Cl)c(Nc3cc(C4CC4)[nH]n3)n2)s1 [Compound 197, tert-butyl [[amino-[5-[5-chloro-4-[(5-cyclopropyl-1H-pyrazol-3-yl)amino]-pyrimidin-2-yl]-2-thienyl]-methylene]amino]formate] | 500 to 1000 | B+ | – | –
NCc1ccc(-c2ncc(Cl)c(Nc3cc(C4CC4)n[nH]3)n2)s1 [Compound 141, 2-(5-(aminomethyl)thiophen-2-yl)-5-chloro-N-(3-cyclopropyl-1H-pyrazol-5-yl)pyrimidin-4-amine hydrochloride] | – | B, C, C | A, A, B** | –
Cc1cnc(-c2ccc(CO)s2)nc1Nc1cc(C2CC2)[nH]n1 [Compound 36, [5-[4-[(5-cyclopropyl-1H-pyrazol-3-yl)amino]-5-methyl-pyrimidin-2-yl]-2-thienyl]methanol] | 50 to 100 | B++, B+ | – | –
O=S(=O)(NC1CC1)c1ccc(Nc2nccc(Nc3cc(C4CC4)n[nH]3)n2)cc1 [Compound 90, N-cyclopropyl-4-[[4-[(5-cyclopropyl-2H-pyrazol-3-yl)amino]pyrimidin-2-yl]amino]-benzenesulfonamide] | 10 to 50 | B+ | – | –
Cc1cnc(-c2ccc([C@H](C)O)s2)nc1Nc1cc(C2CC2)[nH]n1 [Compound 146, (S)-1-(5-(4-(5-cyclopropyl-1H-pyrazol-3-ylamino)-5-methylpyrimidin-2-yl)thiophen-2-yl)ethanol] | – | B++ | – | A*, A**
NS(=O)(=O)c1ccc(-c2ncc(Cl)c(Nc3cc(C4CC4)[nH]n3)n2)o1 [Compound 240, 5-(5-chloro-4-(5-cyclopropyl-1H-pyrazol-3-ylamino)pyrimidin-2-yl)furan-2-sulfonamide] | 10 to 50 | B++ | – | –
COCCNS(=O)(=O)c1ccc(Nc2nccc(Nc3cc(C4CC4)n[nH]3)n2)cc1 [Compound 112, 4-[[4-[(5-cyclopropyl-2H-pyrazol-3-yl)amino]pyrimidin-2-yl]amino]-N-(2-methoxyethyl)benzenesulfonamide] | 10 to 50 | B+ | – | –
NS(=O)(=O)c1ccc(-c2nccc(Nc3cc(C4CC4)[nH]n3)n2)cc1 [Compound 323, 4-[4-[(5-cyclopropyl-1H-pyrazol-3-yl)amino]pyrimidin-2-yl]benzenesulfonamide] | 10 to 50 | B++ | – | –
C#Cc1cnc(-c2ccc(S(=O)(=O)NC(C)(C)C)s2)nc1Nc1cc(C2CC2)n[nH]1 [Compound 115, N-tert-butyl-5-(4-(5-cyclopropyl-1H-pyrazol-3-ylamino)-5-ethynylpyrimidin-2-yl)thiophene-2-sulfonamide] | 10 to 50 | B++, B+ | – | –
C#Cc1cnc(-c2ccc(C(O)CCCO)s2)nc1Nc1cc(C2CC2)[nH]n1 (stereo not drawn) [Compound 223, 1-[5-[4-[(5-cyclopropyl-1H-pyrazol-3-yl)amino]-5-ethynyl-pyrimidin-2-yl]-2-thienyl]butane-1,4-diol] | 1 to 10 | B++ | – | –
N#CCc1ccc(-c2ncc(F)c(Nc3cc(C4CC4)[nH]n3)n2)cc1 [Compound 19, 2-(4-(4-(5-cyclopropyl-1H-pyrazol-3-ylamino)-5-fluoropyrimidin-2-yl)phenyl)acetonitrile] | 1 to 10 | B, B, C, C | – | –
CC(C)(C)NS(=O)(=O)c1ccc(-c2ccc(N)c(Nc3cc(C4CC4)n[nH]3)n2)s1 [Compound 273, 5-[5-amino-6-[(5-cyclopropyl-2H-pyrazol-3-yl)amino]-2-pyridyl]-N-tert-butyl-thiophene-2-sulfonamide] | 10 to 50 | B+ | – | –
C#Cc1cnc(-c2ccc([C@H](O)CCC)s2)nc1Nc1cc(C2CC2)n[nH]1 [Compound 215, 1-[5-[4-[(5-cyclopropyl-2H-pyrazol-3-yl)amino]-5-ethynyl-pyrimidin-2-yl]-2-thienyl]butan-1-ol] | – | B++ | – | A**, A**, A*
C#Cc1cnc(-c2ccc(C(C)=O)s2)nc1Nc1cc(C2CC2)[nH]n1 [Compound 111, 1-(5-(4-(5-Cyclopropyl-1H-pyrazol-3-ylamino)-5-ethynylpyrimidin-2-yl)thiophen-2-yl)ethanone] | – | B++, B | – | A**, A*
CC(C)(C)OC(=O)NCCNS(=O)(=O)c1ccc(-c2ncc(Cl)c(Nc3cc(C4CC4)[nH]n3)n2)s1 [Compound 78, tert-Butyl 2-(5-(5-chloro-4-(5-cyclopropyl-1H-pyrazol-3-ylamino)pyrimidin-2-yl)thiophene-2-sulfonamido)ethylcarbamate] | 100 to 500 | A, B++, C, C | – | –
O=[N+]([O-])c1csc(-c2ncc(Cl)c(Nc3cc(C4CC4)[nH]n3)n2)c1 [Compound 204, 5-chloro-N-(5-cyclopropyl-1H-pyrazol-3-yl)-2-(4-nitrothiophen-2-yl)pyrimidin-4-amine] | 10 to 50 | B+ | – | –
CC(O)c1cccc(-c2nccc(Nc3cc(C4CC4)[nH]n3)n2)c1 (stereo not drawn) [Compound 316, 1-[3-[4-[(5-cyclopropyl-1H-pyrazol-3-yl)amino]pyrimidin-2-yl]phenyl]ethanol] | 10 to 50 | B+ | – | –
O=S(=O)(NC1CC1)c1ccc(-c2ncc(Cl)c(Nc3cc(C4CC4)[nH]n3)n2)s1 [Compound 139, 5-[5-chloro-4-[(5-cyclopropyl-1H-pyrazol-3-yl)amino]-pyrimidin-2-yl]-N-cyclopropyl-thiophene-2-sulfonamide] | 10 to 50 | B+, C | – | –
Cc1cc(-c2ccc(S(N)(=O)=O)s2)nc(Nc2cc(C3CC3)n[nH]2)n1 [Compound 322, 5-[2-[(5-cyclopropyl-2H-pyrazol-3-yl)amino]-6-methyl-pyrimidin-4-yl]thiophene-2-sulfonamide] | 1 to 10 | B++ | – | –
C#Cc1cnc(C2=CCN(C(=O)OC(C)(C)C)CC2)nc1Nc1cc(C2CC2)[nH]n1 [Compound 250, Tert-butyl 4-(4-(5-cyclopropyl-1H-pyrazol-3-ylamino)-5-ethynylpyrimidin-2-yl)-5,6-dihydropyridine-1(2H)-carboxylate] | 100 to 500 | B+ | – | –
CCOC(=O)C(O)c1ccc(-c2ncc(Cl)c(Nc3cc(C4CC4)[nH]n3)n2)s1 (stereo not drawn) [Compound 191, Ethyl 2-(5-(5-chloro-4-(5-cyclopropyl-1H-pyrazol-3-ylamino)pyrimidin-2-yl)thiophen-2-yl)-2-hydroxyacetate] | – | B, C | – | A*, B**
OCc1ccc(-c2ncc(Cl)c(Nc3cc(C4CC4)[nH]n3)n2)s1 [Compound 25, [5-[5-chloro-4-[(5-cyclopropyl-1H-pyrazol-3-yl)amino]-pyrimidin-2-yl]-2-thienyl]methanol] | 10 to 50 | B+ | – | –

Source: US20110053916A1 (Vertex Pharmaceuticals Incorporated, priority 2009, published 2011)
